Results published in patent publication US8779157B2, “MGLUR4 allosteric potentiators, compositions, and methods of treating neurological dysfunction” (Vanderbilt University, priority 2009, dated 2014).
pEC50: −log10 of the molar value.

Biological target: mGluR4 (UniProt Q14833)
Test: mGluR4 potentiation assay (fluorescence, Ca2+ or thallium/GIRK readout; EC20 agonist)
Format: cell-based, human / rat
Conditions: half maximal effective concentration for mGluR4 potentiation; species of receptor not given
Procedure, shortened: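 Human mGluR4 in CHO cells (Ca2+ dye) or rat mGluR4 with GIRK in HEK cells (thallium dye), read kinetically. Potentiation EC50 and maximum fitted from compound concentration-response at fixed agonist.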

Structure (SMILES) | pEC50
CN1C(=O)N(c2ccc(NC(=O)c3ccccn3)cc2Cl)C(=O)[C@]1(C)Cc1ccccc1 [Example 1.3.64, (S)-N-(4-(4-benzyl-3,4-dimethyl-2,5-dioxoimidazolidin-1-yl)-3-chlorophenyl)picolinamide] | 6.71
O=C(Nc1ccc(N2C(=O)C3COCCN3C2=S)c(Cl)c1)c1ncccc1F (stereo not shown) [Example 1.3.39, N-(3-Chloro-4-(1-oxo-3-thioxodihydro-1H-imidazo[5,1-c][1,4]oxazin-2(3H, 8H,8aH)-yl)phenyl)-3-fluoropicolinamide] | 5.92
CC(C)(C)C(=O)N1CCN2C(=O)N(c3ccc(NC(=O)c4ccccn4)cc3Cl)C(=O)C2C1 (stereo not shown) [Example 1.3.73, N-(3-chloro-4-(1,3-dioxo-7-pivaloylhexahydroimidazo[1,5-a]pyrazin-2(3H)-yl)phenyl)picolinamide] | 5.97
O=C(Nc1ccc(N2C(=O)C3COCCN3C2=O)c(Cl)c1)c1cccc(F)n1 (stereo not shown) [Example 1.3.29, N-(3-Chloro-4-(1,3-dioxodihydro-1H-imidazo[5,1-c][1,4]oxazin-2(3H,8H,8aH)-yl)phenyl)-6-fluoropicolinamide] | 5.17
C[C@@]1(Cc2ccc(F)cc2)NC(=O)N(c2ccc(NC(=O)c3ccccn3)cc2Cl)C1=O [Example 1.3.61, (S)-N-(3-chloro-4-(4-(4-fluorobenzyl)-4-methyl-2,5-dioxoimidazolidin-1-yl)phenyl)picolinamide] | 6.47

Continued by rising pEC50, values first:

pEC50 | Structure (SMILES)
5.72 | CC12CCCCN1C(=S)N(c1ccc(NC(=O)c3cccnn3)cc1Cl)C2=O (stereo not shown) [Example 1.3.100, N-(3-chloro-4-(8a-methyl-1-oxo-3-thioxohexahydroimidazo[1,5-a]pyridin-2(3H)-yl)phenyl)pyridazine-3-carboxamide]
5.78 | O=C(Nc1ccc(N2C(=O)C3CCCCN3C2=O)c(Cl)c1)c1cccc(F)n1 (stereo not shown) [Example 1.3.4, N-(3-Chloro-4-(1,3-dioxotetrahydroimidazo[1,5-a]pyridin-2(1H,3H,5H)-yl)phenyl)-6-fluoropicolinamide]
5.96 | CC12CCCCN1C(=O)N(c1ccc(NC(=O)c3ncc(F)cc3F)cc1Cl)C2=O (stereo not shown) [Example 1.3.88, N-(3-chloro-4-(8a-methyl-1,3-dioxohexahydroimidazo[1,5-a]pyridin-2(3H)-yl)phenyl)-3,5-difluoropicolinamide]
6.64 | O=C(Nc1ccc(N2C(=O)NC3(CCCCC3)C2=O)c(Cl)c1)c1ccccn1 [Example 1.3.12, N-(3-chloro-4-(2,4-dioxo-1,3-diazaspiro[4.5]decan-3-yl)phenyl)picolinamide]
6.66 | O=C(Nc1ccc(N2C(=O)NC3(CC4CCC3C4)C2=O)c(Cl)c1)c1ccccn1 (stereo not shown) [Example 1.3.53, N-(3-chloro-4-(2′,5′-dioxospiro[bicyclo[2.2.1]heptane-2,4′-imidazolidin]-1′-yl)phenyl)picolinamide]
